Test results from publication PMC11129182, “Development of Inhibitors, Probes, and PROTAC Provides a Complete Toolbox to Study PARK7 in the Living Cell” (Journal of Medicinal Chemistry, 2024).
“Also recorded” adds a separate entry of the source.

Columns and labels:
PARK7 [1] = molecular target: T1, PARK7 (Homo sapiens, UniProt Q99497); assay: Probe labeling of endogenous PARK7 in cells (HEK293T, A549); type: cell-based; details: for labeling of PARK7 in cells / cellular PARK7 labeling efficiency over time: 5 μM; for labeling of PARK7 in cells: 24 h; for cellular PARK7 labeling efficiency over time: A549 cells, indicated time points
T1 sequence (Q99497 1-189): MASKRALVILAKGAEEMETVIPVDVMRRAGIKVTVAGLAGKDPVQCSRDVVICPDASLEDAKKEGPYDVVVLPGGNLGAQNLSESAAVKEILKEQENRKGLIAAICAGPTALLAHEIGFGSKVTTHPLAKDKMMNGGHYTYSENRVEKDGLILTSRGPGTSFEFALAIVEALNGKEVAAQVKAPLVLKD
Protocol: To further investigate the ability of these probes to visualize PARK7 in cells, HEK293T and A549 cells were incubated with 5 μM of these probes for 24 h, followed by cell lysis, SDS-PAGE, fluorescence scanning, and immunostaining (Supporting Information Figure S7). […] We also observed a band shift of the PARK7 protein in the samples treated with JYQ-192, JYQ-196, and JYQ-197 by immunoblot against PARK7 in A549 cells. […] Therefore, we further investigated JYQ-192, JYQ-196, and JYQ-197. To characterize their cell permeability, A549 cells were incubated with 5 μM final concentration of these probes for the indicated time points, followed by confocal microscopy and by cell lysis, SDS-PAGE, fluorescence scanning, and immunostaining. All three probes already entered the cells after 1 h incubation (Supporting Information Figure S8A). […] Besides PARK7, we observed extra bands in the fluorescence scan for both HEK293T and A549 cells and a very strong band labeling between 55 and 75 kDa in A549 cells with a 5 μM final concentration of all probes.
Despite the fact that probe JYQ-196 outperformed SulfoCy5 probes JYQ-192 and JYQ-197 in terms of the cellular PARK7 labeling efficiency, this probe still lacked specificity toward PARK7. PARK7 is known to form dimers, trimers, and even high-molecular-weight complexes under nonreducing conditions.[29],[30] […] To investigate further whether lower concentrations of JYQ-196 can decrease unspecific labeling, HEK293T and A549 cells were incubated with increased concentrations (0–10 μM) of JYQ-196 for 4 h, followed by cell lysis, SDS-PAGE, fluorescence scanning, and immunostaining (Figure 4C).
Oligos used to knockdown PARK7 were purchased from Dharmacon (Cat#: MQ-005984-00-0002). Silencing was performed in HEK293T and A549 cells as follows: for a 24-well plate format, 50 μL of siRNA (500 nM stock) was incubated with 1 μL of Dharmafect reagent 1 (Dharmacon) diluted in 50 μL of medium without supplements (total volume of 100 μL of transfection mix) with gentle shaking for 20 min at room temperature (RT). A total of 30 × 10^3 HEK293T or 50 × 10^3 cells were added to transfection mixes to a total volume of 500 μL per well and cultured for 48 h prior to incubation with 5 μM final concentration of JYQ-196 for 4 h.
HEK293T or A549 cells were incubated with indicated concentration of the probes for the indicated time points, followed by cell lysis and adding loading buffer (4x).

PARK7 [2] = molecular target: T1, PARK7; assay: Probe labeling of purified recombinant PARK7; details: 1 μM PARK7, 1 h, 37 °C
Protocol: The ability of these probes to label and visualize PARK7 activity in vitro was evaluated by treating recombinant human PARK7 protein (1 μM) with a concentration series of the probes for 1 h at 37 °C, followed by SDS-PAGE analysis under nondenaturing conditions (without boiling and β-mercaptoethanol).
The assay was conducted in Tris-buffer (50 mM Tris-HCl, 150 mM NaCl, 2 mM TCEP, pH 7.5). PARK7 (1 μM final concentration) was incubated with different concentrations (0, 0.1, 0.5, 1, 2, 5, and 10 μM) of the indicated probes for 1 h at 37 °C. After completing the incubation time, all of the reactions were stopped by adding NuPAGE LDS sample buffer (4x).

PARK7 [3] = molecular target: T1, PARK7; details: read-out: IC50 (nM) DiFUMAc; 0.1 μM PARK7, 1 h preincubation, 300 μM DiFMUAc
Protocol: Compounds were transferred using a Labcyte Echo550 acoustic dispenser to obtain a 12-point serial dilution of 0.001–100 μM. Next, PARK7 (15 μL, final concentration 0.1 μM) was dispensed with a Biotek MultiFlowFX liquid dispenser and incubated for 1 h, followed by dispensing the substrate DiFMUAc (5 μL, final concentration 300 μM). The fluorescence intensity (FI) signal was monitored on a BMG Labtech PHERAstar plate reader (λex/em 350/450 nm) for 1 h.

PARK7 [4] = molecular target: T1, PARK7; assay: Hit validation and pure-compound testing in the PARK7 FP assay with JYQ-107; type: biochemical; details: pure compounds
PARK7 [5] = molecular target: T1, PARK7; assay: Cell-based competition assay with probe JYQ-92 in HEK293T cells; details: intact HEK293T cells, concentration series, 24 h
Protocol: Samples were resolved by SDS-PAGE and analyzed by fluorescence scanning and Western blotting (Figure 2B). The target engagement of cellular PARK7 is reflected by the disappearance of the PARK7 labeling band in the fluorescence gel scan and by the loss of the shifted probe-labeled PARK7 band in the Western blot.
HEK293T cells were treated with the indicated concentrations of indicated inhibitors for indicated incubation time.
Figure S1. Assessment of the cell permeability of JYQ -88. (A) Structure of JYQ-92.
(B) Target engagement of JYQ-88 in HEK293T cells. HEK293T cells were incubated […]
with PARK7 probe JYQ-92 fo r 1 h at 37 °C. The reactions were stopped by the addition of NuPAGE™ LDS sample buffer (4x). Samples were resolved by SDS -PAGE using […]
fluorescence scanning on a Typhoon FLA 9500 (GE Healthcare Life Sciences) using […]
The disappearance of the JYQ-92-labeled band in […]
of JYQ-88 is used as a measurement of cellular PARK7 engagement with JYQ -88.
(1 picture or pasted object on this page, not shown here)

| labeling of PARK7 in cells (PARK7 [1]; HEK293T and A549 cells) | probe concentration giving complete labeling of recombinant PARK7 (Coomassie band shift) (PARK7 [2]) | IC50 (PARK7 [3]) | specificity of labeling (PARK7 siRNA depletion) (PARK7 [1]; HEK293T and A549 cells, siPARK7 48 h, then 5 μM for 4 h) | inhibition at 0.25 µM (PARK7 [4]; 0.25 µM, read-out: % Inhibition 0.25 µM) | inhibition at 1 µM (PARK7 [4]; 1 µM) | Structure (SMILES) | cellular PARK7 labeling efficiency over time (PARK7 [1]) | cellular PARK7 engagement of JYQ-88 (PARK7 [5]) |
| --- | --- | --- | --- | --- | --- | --- | --- | --- |
| inefficient labeling of cellular PARK7 | 5 µM |  |  |  |  | CC1=CC(C)=[N+]2C1=C(CCCCc1cn(CC(=O)N3CCN(S(=O)(=O)c4cccc(C(=O)N5CCc6nc(NC(=O)[C@@H]7CCN(C#N)C7)sc6C5)c4)CC3)nn1)c1c(C)cc(C)n1[B-]2(F)F [JYQ-191] |  |  |
|  |  | 130 nM |  |  |  | O=C1C(=O)N(CCc2ccccc2)c2ccc(F)cc21 [STK793590] |  |  |
| clear band around 25 kDa | 2 µM |  |  |  |  | CC[N+]1=C(/C=C/C=C/C=C2/N(CCCCCC(=O)NCCCc3cn(CC(=O)N4CCN(S(=O)(=O)c5cccc(C(=O)N6CCc7nc(NC(=O)[C@@H]8CCN(C#N)C8)sc7C6)c5)CC4)nn3)c3ccc(S(=O)(=O)[O-])cc3C2(C)C)C(C)(C)c2cc(S(=O)(=O)O)ccc21 [JYQ-192] | labeled a small portion of cellular PARK7 even after 24 h incubation |  |
| clear band around 25 kDa | 2 µM |  | unspecific labeling of other proteins |  |  | CC1=CC(C)=[N+]2C1=C(CCCCc1cn(-c3ccc(F)c(C(=O)N4CCc5nc(NC(=O)[C@@H]6CCN(C#N)C6)sc5C4)c3)nn1)c1c(C)cc(C)n1[B-]2(F)F [JYQ-196] | complete labeling of cellular PARK7 after 4 h incubation |  |
| clear band around 25 kDa | 1 µM |  |  |  |  | CC[N+]1=C(/C=C/C=C/C=C2/N(CCCCCC(=O)NCCCc3cn(-c4ccc(F)c(C(=O)N5CCc6nc(NC(=O)[C@@H]7CCN(C#N)C7)sc6C5)c4)nn3)c3ccc(S(=O)(=O)O)cc3C2(C)C)C(C)(C)c2cc(S(=O)(=O)[O-])ccc21 [JYQ-197] | labeled a small portion of cellular PARK7 even after 24 h incubation |  |
|  |  | 120 nM |  | 55.4% | 83.2% | N#CN1CC[C@@H](C(=O)Nc2nc3c(s2)CN(C(=O)CN=[N+]=[N-])CC3)C1 [JYQ-88, reference compound] |  | did not show inhibition of PARK7 in cells; also recorded: poor cellular engagement |
